Results as given in article PMC7156458, “Synthetic biology based construction of biological activity-related library of fungal decalin-containing diterpenoid pyrones” (Nature Communications, 2020).
Like-named read-outs stand apart in the source and are kept apart here.

What was measured:
Format in all cases: cell-based
[1] = system: human immunodeficiency virus-1 (HIV-1); assay: anti-HIV MAGI assay; conditions: Human immunodeficiency virus 1, MAGI, average of numeric determinations
Description: (§1) We examined the inhibitory activities of DDPs against various species of bacteria (both gram-negative and gram-positive bacteria), fungi and viruses. […] In contrast, preliminary screening of the DDPs for anti-viral agents with hepatitis B virus (HBV), measles virus (MV), Epstein-Barr virus (EBV), herpes simplex virus (HSV) and human immunodeficiency virus-1 (HIV-1) indicated their selective inhibition of HIV.

[2] = system: MAGI cells; assay: cytotoxicity in the anti-HIV assay (CC50); conditions: single determinations
Description: as §1
Policy information about cell lines […]
HeLa-CD4-LTR/ !-galactosidase (MAGI) cells provided by Dr. J. Overbaugh through the NIH AIDS Research and Reference […]
MAGI cells were authenticated by the NIH.
Mycoplasma contamination All the cell lines tested negative for mycoplasma contamination.
Commonly misidentified lines No commonly mis-identified cell lines. […]

[3] = system: DL1 cells; assay: cytotoxicity in Drosophila DL1 cells; conditions: DL1 cells; for IC50: cytotoxicity; for % viability, viability 1: replicate 1, relative to DMSO 1%; for % viability, viability 2: replicate 2, relative to DMSO 1%
Experimental: (§2) We screened the DDPs on the Drosophila assay system for cytotoxicity, inhibitory activity of innate immune signalling and insecticidal activity. The cytotoxicity of the DDPs was evaluated using two cell lines, embryonic macrophage-derived DL1 cells[58]–[60] and larval blood cell-derived l(2)mbn cells, and their IC50 values are listed in Supplementary Table 23.

[4] = cytotoxicity in Drosophila DL1 cells; conditions: Drosophila, DL1 cells (embryonic macrophage-derived), DL1 cells
Experimental: as §2

[5] = system: l(2)mbn cells; assay: cytotoxicity in Drosophila l(2)mbn cells; conditions: for Luminescence Raw1: replicate 1; for Luminescence Raw2: replicate 2; for % viability, viability 1: replicate 1, relative to DMSO 1%; for % viability, viability 2: replicate 2, relative to DMSO 1%
Experimental: as §2

[6] = cytotoxicity in Drosophila l(2)mbn cells; conditions: Drosophila, l(2)mbn cells (larval blood cell-derived)
Experimental: as §2

[7] = replicate 1, relative to DMSO 1%, read-out: % viability, viability 1
[8] = replicate 2, relative to DMSO 1%, read-out: % viability, viability 2

## C=C1CCC2C(C)(CC(=O)C=C(C)C)C(O)CCC2(C)C1Cc1c(O)c(C)c(C)oc1=O (centres unmarked) [Compound 7]
[1]; anti-HIV, read-out: Avg. EC50
  EC50: 163 nM
[2]
  Cytotoxicity: >10 µM
[3]; 0.04 µM, replicate 1
  Luminescence Raw1: 2666434
[3]; 0.04 µM, replicate 2
  Luminescence Raw2: 2708996
[3]; 0.2 µM, replicate 1
  Luminescence Raw1: 2732080
[3]; 0.2 µM, replicate 2
  Luminescence Raw2: 2789792
[3]; 1 µM, replicate 1
  Luminescence Raw1: 2478515
[3]; 1 µM, replicate 2
  Luminescence Raw2: 2838847
[3]; 4 µM, replicate 1
  Luminescence Raw1: 1720040
[3]; 4 µM, replicate 2
  Luminescence Raw2: 2405658
[3]; 10 µM, replicate 1
  Luminescence Raw1: 751779
[3]; 10 µM, replicate 2
  Luminescence Raw2: 819211
[3]; 20 µM, replicate 1
  Luminescence Raw1: 275091
[3]; 20 µM, replicate 2
  Luminescence Raw2: 293480
[3]; Drosophila melanogaster, average of two replicates, read-out: IC50 Average
  IC50: 8.75 µM
[3]; Drosophila melanogaster, average±SEM, read-out: IC50
  IC50: 8.75 ± 0.64 µM
[3]; Drosophila melanogaster, replicate 1, read-out: IC50 (1)
  IC50: 8.12 µM
[3]; Drosophila melanogaster, replicate 2, read-out: IC50 (2)
  IC50: 9.39 µM
[4]; [7]
  viability at 0.04 µM: 129%
  viability at 0.2 µM: 133%
  viability at 1 µM: 120%
  viability at 4 µM: 83.5%
  viability at 10 µM: 36.5%
  viability at 20 µM: 13.4%
[4]; [8]
  viability at 0.04 µM: 132%
  viability at 0.2 µM: 135%
  viability at 1 µM: 138%
  viability at 4 µM: 117%
  viability at 10 µM: 39.8%
  viability at 20 µM: 14.2%
[5]; 0.04 µM
  Luminescence Raw1: 3452362
  Luminescence Raw2: 3328631
[5]; 0.2 µM
  Luminescence Raw1: 3304462
  Luminescence Raw2: 3461380
[5]; 1 µM
  Luminescence Raw1: 3578980
  Luminescence Raw2: 3388873
[5]; 4 µM
  Luminescence Raw1: 3312398
  Luminescence Raw2: 3370476
[5]; 10 µM
  Luminescence Raw1: 3097048
  Luminescence Raw2: 2956371
[5]; 20 µM
  Luminescence Raw1: 1044161
  Luminescence Raw2: 1013149
[5]; Drosophila melanogaster, cytotoxicity, average±SEM, read-out: IC50
  IC50: > 20 µM
[6]; [7]
  viability at 0.04 µM: 135%
  viability at 0.2 µM: 129%
  viability at 1 µM: 139%
  viability at 4 µM: 129%
  viability at 10 µM: 121%
  viability at 20 µM: 40.7%
[6]; [8]
  viability at 0.04 µM: 130%
  viability at 0.2 µM: 135%
  viability at 1 µM: 132%
  viability at 4 µM: 131%
  viability at 10 µM: 115%
  viability at 20 µM: 39.5%

## C=C1CCC2C(C)(CCC=C(C)C)C(O)CCC2(C)C1Cc1c(OC)oc(C)c(C)c1=O (centres unmarked) [Compound 15, viridoxin A hydrolysate]
[1]; read-out: Avg. EC50 (nM), anti-HIV
  EC50: 8.51 nM
[2]
  Cytotoxicity: >10 µM
[3]; 0.04 µM, replicate 1
  Luminescence Raw1: 2784909
[3]; 0.04 µM
  % viability, viability 1: 203.06%
  % viability, viability 2: 219.419%
[3]; 0.04 µM, replicate 2
  Luminescence Raw2: 3009267
[3]; 0.2 µM, replicate 1
  Luminescence Raw1: 2743429
[3]; 0.2 µM
  % viability, viability 1: 200.035%
  % viability, viability 2: 208.057%
[3]; 0.2 µM, replicate 2
  Luminescence Raw2: 2853442
[3]; 1 µM, replicate 1
  Luminescence Raw1: 2896366
[3]; 1 µM
  % viability, viability 1: 211.186%
  % viability, viability 2: 230.228%
[3]; 1 µM, replicate 2
  Luminescence Raw2: 3157521
[3]; 4 µM, replicate 1
  Luminescence Raw1: 726344
[3]; 4 µM
  % viability, viability 1: 52.9608%
  % viability, viability 2: 89.7188%
[3]; 4 µM, replicate 2
  Luminescence Raw2: 1230470
[3]; 10 µM, replicate 1
  Luminescence Raw1: 281027
[3]; 10 µM
  % viability, viability 1: 20.4909%
  % viability, viability 2: 25.1443%
[3]; 10 µM, replicate 2
  Luminescence Raw2: 344848
[3]; 20 µM, replicate 1
  Luminescence Raw1: 282109
[3]; 20 µM
  % viability, viability 1: 20.5698%
  % viability, viability 2: 21.6214%
[3]; 20 µM, replicate 2
  Luminescence Raw2: 296532
[3]; average±SEM
  IC50: 6.1 ± 1.57 µM
[3]; read-out: IC50 (1), replicate 1
  IC50: 4.53 µM
[3]; read-out: IC50 (2), replicate 2
  IC50: 7.66 µM
[3]; read-out: IC50 Average, average of two replicates
  IC50: 6.1 µM
[5]; 0.04 µM
  Luminescence Raw1: 5571583
  % viability, viability 1: 88.7303%
  Luminescence Raw2: 5591430
  % viability, viability 2: 89.0464%
[5]; 0.2 µM
  Luminescence Raw1: 6221854
  % viability, viability 1: 99.0862%
  Luminescence Raw2: 5568336
  % viability, viability 2: 88.6786%
[5]; 1 µM
  Luminescence Raw1: 6094827
  % viability, viability 1: 97.0632%
  Luminescence Raw2: 5439516
  % viability, viability 2: 86.6271%
[5]; 4 µM
  Luminescence Raw1: 5005443
  % viability, viability 1: 79.7142%
  Luminescence Raw2: 4514031
  % viability, viability 2: 71.8882%
[5]; 10 µM
  Luminescence Raw1: 362955
  % viability, viability 1: 5.78%
  Luminescence Raw2: 319326
  % viability, viability 2: 5.085%
[5]; 20 µM
  Luminescence Raw1: 109116
  % viability, viability 1: 1.738%
  Luminescence Raw2: 229184
  % viability, viability 2: 3.65%
[5]; cytotoxicity, average±SEM
  IC50: 5.23 ± 0.19 µM
[5]; read-out: IC50 (1), cytotoxicity, replicate 1
  IC50: 5.42 µM
[5]; read-out: IC50 (2), cytotoxicity, replicate 2
  IC50: 5.04 µM
[5]; read-out: IC50 Average, cytotoxicity, average of two replicates
  IC50: 5.23 µM
